According to patent US20220221458A1, “NOROVIRUS-BINDING PEPTIDE” (Kao Corporation, priority 2019, published 2022):
Ends that are not written are not given here.

Tests used:
GII.3 VLP = experiment: Calculation of KD value by bio-layer interferometry (BLI method); format: binding, norovirus; details: BLItz, GII.3 VLP 1 and 0.1 mg/mL; for Kd: biotinylated peptide 100 μM on SA chip, calculated from ka and kd; for ka / kd: peptide 100 μM on SA chip
Method: <Calculation of KD Value by Bio-Layer Interferometry: BLI Method>
The apparatus used was BLItz™ (manufactured by ForteBio). The tip of SA chip (manufactured by ForteBio) was kept in contact with purified water for 1 minute for hydration and was then kept in contact with a 1% BSA aqueous solution for 1 hour for blocking. The SA chip subjected to blocking treatment was set to the measuring unit of the BLItz™ main body, and measurement was performed according to the program shown in Table 14. The peptides of SEQ ID NOs: 1, 21, and 28 were used, and the concentration was adjusted to 100 μM. The concentration of the GII.3 VLP was adjusted to 1 and 0.1 mg/mL. The measurement data were analyzed using the attached software, and the KD value was calculated based on the Ka and Kd values.

[1] = system: norovirus VLPs (GII.4, GII.3, GII.17); experiment: In vitro selection by cDNA display against VLPs with appearance frequency analysis of sequences; details: count among peptide aptamer sequences obtained after in vitro selection cycles (7 cycles GII.4, 5 cycles GII.3 and GII.17)
Method: The constructed cDNA display and VLPs were incubated in 100 μL of a dialysis selection buffer (20 mM HEPES (pH 7.4), 150 mM NaCl, and 0.05% s Tween 20) at the concentrations shown in Table 9 below at 25° C. for 30 minutes. Subsequently, the resultant was diluted to 1 mL with the dialysis selection buffer, and was put in Float-A-Lyzer G2 Dialysis Device CE, 1000kD MWCO (manufactured by Spectrum Laboratories, Inc.) and was dialyzed with 1 L of the dialysis selection buffer as the external solution at 25° C. During the dialysis, the external solution was replaced with new one 3 times every 2 hours, and the dialysis was performed overnight (for 8 hours) after the 4th replacement. The dialysis product was concentrated with Amicon Ultra 100K (manufactured by Merck Millipore S.A.S.) at 14,000×g for 5 minutes.
To an immunoplate (C-BOTTOM, CLEAR, MICROLON (registered trademark), HIGH BINDING, manufactured by Greiner Bio-One), 100 μL of 3 μg/mL GII.3 or GII.17 VLP solution was added and immobilization was performed at 4° C. overnight. Subsequently, the solution was discarded, and 200 μL of a blocking agent (EMD Millipore™ Blok™ NSB Blocking agents, Thermo Fisher Scientific) was added, followed by gently stirring at room temperature for 2 hours for blocking. On this occasion, wells not immobilizing the VLP were also subjected to similar blocking to be used in preselection.
The solution was discarded from the wells, the wells were washed with 200 μL of a wash buffer (10 mM Hepes (pH 7.4), 150 mM NaCl, and 0.05% Tween 20) three times, and 100 μL of cDNA display (constructed from 1.5 pmol of mRNA-linker) was then put in the wells not immobilizing the VLP, followed by gently stirring at room temperature for 30 minutes to perform preselection. Subsequently, the supernatant containing cDNA display that had not bound to the blocking agent was put in the wells immobilizing the VLP, followed by gently stirring at room temperature for 30 minutes to be bound to the VLP. The supernatant was discarded, washing with 100 μL of the wash buffer was performed four times, and 100 μL of a 5′ SDS solution was then added, followed by incubation at 50° C. for 15 minutes to elute the bound cDNA display.
Subsequently, the VLP-cDNA display complex obtained above was diluted to 100 μL with a dialysis selection buffer, and 10 μL of a coprecipitating agent (Quick-Precip Plus Solution, manufactured by EdgeBio) and 220 μL of 100% ethanol were added, followed by centrifugation at 20,000×g for 5 minutes. Subsequently, the supernatant was discarded, and 1 mL of 70, ethanol was added for rinsing. […] The PCR program was (a) 98° C. for 2 minutes, (b) 95° C. for 20 seconds, (c) 69° C. for 20 seconds, (d) 72° C. for 20 seconds (steps (b) to (d) were performed 25 cycles), and (e) 72° C. for 1 minute.
After the in vitro selection cycle (7 cycles for GII.4 and 5 cycles for GII.3 and GII.17 based on the libraries of 7 cycles obtained by GII.4 dialysis), a sequence library was prepared by the following method, and the sequence information was analyzed. The preparation of the sequence library and the sequencing were performed according to the 16S Metagenomic Sequencing Library Preparation protocol (manufactured by Illumina, Inc.).
The Fastq file of the obtained sequence was converted to a Fasta file, all of the obtained sequences were simultaneously translated from the first base of the start codon (ATG) at position 115 to the third base of the cysteine codon (TGC) at position 156 of the library sequence (SEQ ID NO: 279) using software MEGA.

[2] = target: GII.3 VLP (norovirus GII.3 TCH strain); experiment: BLI (BLItz), biotin peptide on SA chip, GII.3 VLP at 1 and 0.1 mg/mL

Molecule | Appearance Frequency [1] | further results
GRRYYI [SEQ ID NO: 1] |  | Kd (GII.3 VLP): 6.01 µM; ka (GII.3 VLP): 9070 M⁻¹ s⁻¹; kd (GII.3 VLP): 0.0546 s⁻¹
VMMQCP [SEQ ID NO: 28] |  | Kd (GII.3 VLP): 218 µM; ka (GII.3 VLP): 230 M⁻¹ s⁻¹; kd (GII.3 VLP): 0.05 s⁻¹
GKFFCH [SEQ ID NO: 21] |  | Kd (GII.3 VLP): 107 µM; ka (GII.3 VLP): 358 M⁻¹ s⁻¹; kd (GII.3 VLP): 0.0382 s⁻¹
252 (SRSHWG; Designed peptide) [compound 252] | 6 | 
172 (ECHHVH; Designed peptide) [compound 172] | 6 | 
241 (RSSAKR; Designed peptide) [compound 241] | 6 | 
166 (ATITVW; Designed peptide) [compound 166] | 6 | 
212 (MDHEMF; Designed peptide) [compound 212] | 6 | 
173 (EEKTRR; Designed peptide) [compound 173] | 6 | 
153 (TTKYMW; Designed peptide) [compound 153] | 7 | 
136 (PVLHLH; Designed peptide) [compound 136] | 7 | 
42 (GNSPYT; Designed peptide) [compound 42] | 10 | 
196 (HVGLDK; Designed peptide) [compound 196] | 6 | 
66 (SGYYRV; Designed peptide) [compound 66] | 9 | 
149 (SDRVIA; Designed peptide) [compound 149] | 7 | 
1 (GRRYYI; Designed peptide) [compound 1] | 23 | 
194 (HQTGRL; Designed peptide) [compound 194] | 6 | 
220 (NPVHIK; Designed peptide) [compound 220] | 6 | 
114 (GSLDIM; Designed peptide) [compound 114] | 7 | 
59 (MAWIGS; Designed peptide) [compound 59] | 9 | 
246 (SAMFAS; Designed peptide) [compound 246] | 6 | 
52 (VRYPEI; Designed peptide) [compound 52] | 10 | 
197 (HWLRSV; Designed peptide) [compound 197] | 6 | 

Molecule | Appearance Frequency [1] | further results
80 (HICIRR; Designed peptide) [compound 80] | 8 | 
101 (YEGRND; Designed peptide) [compound 101] | 8 | 
121 (ILISSC; Designed peptide) [compound 121] | 7 | 
213 (MQFELV; Designed peptide) [compound 213] | 6 | 
198 (HYRARY; Designed peptide) [compound 198] | 6 | 
37 (WEVALH; Designed peptide) [compound 37] | 11 | 
113 (GMSCGI; Designed peptide) [compound 113] | 7 | 
103 (AHLHCD; Designed peptide) [compound 103] | 7 | 
86 (MSTHKV; Designed peptide) [compound 86] | 8 | 
30 (DRYSAW; Designed peptide) [compound 30] | 11 | 
67 (SKHLAG; Designed peptide) [compound 67] | 9 | 
88 (SITVLY; Designed peptide) [compound 88] | 8 | 
257 (TNRTVS; Designed peptide) [compound 257] | 6 | 
18 (SRWCLS; Designed peptide) [compound 18] | 13 | 
203 (ITLIDT; Designed peptide) [compound 203] | 6 | 
82 (ILGGHS; Designed peptide) [compound 82] | 8 | 
208 (LLGKPV; Designed peptide) [compound 208] | 6 | 
249 (SIITRR; Designed peptide) [compound 249] | 6 | 
144 (RRGDNY; Designed peptide) [compound 144] | 7 | 
214 (MSNKMV; Designed peptide) [compound 214] | 6 | 
GKFFCH (also: spacer with Trp and biotin, letters and position not given here) [peptide of SEQ ID NO: 21, synthesized, with spacer sequence and biotin] |  | Kd [2]: 107 µM; koff [2]: 0.0382 s⁻¹; kon [2]: 358 M⁻¹ s⁻¹
GRRYYI (also: spacer with Trp and biotin, letters and position not given here) [peptide of SEQ ID NO: 1, synthesized, with spacer sequence and biotin] |  | Kd [2]: 6.01 µM; koff [2]: 0.0546 s⁻¹; kon [2]: 9070 M⁻¹ s⁻¹
VMMQCP (also: spacer with Trp and biotin, letters and position not given here) [peptide of SEQ ID NO: 28, synthesized, with spacer sequence and biotin] |  | Kd [2]: 218 µM; koff [2]: 0.05 s⁻¹; kon [2]: 230 M⁻¹ s⁻¹
